Experimental findings from patent US20240390298A1, “CYCLOHEXYL BETA-HYDROXY ALKYL AMINES AND MEDICAL USES THEREOF” (ATROGI AB, priority 2021, published 2024) are described below.

Where a name gives a salt, the structure may show the parent alone.

The test system of assay [1] is L6-myotubes. Kind of assay: Glucose uptake in differentiated L6-myotubes (3H-2-deoxyglucose), compared to isoproterenol. It is filed as cell-based. The following applies: agonist 1×10^−5 M, 50 nM 3H-2-deoxyglucose; for Emax at 10 µM: read-out: Biological example 1: glucose uptake, activity compared to that of isoproterenol. The essentials:
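Serum-starved differentiated L6 myotubes stimulated with agonist at 1×10^−5 M for 1 h 40 min, re-dosed in glucose-free medium for 20 min, then given 50 nM ^3H-2-deoxyglucose for 10 min. Uptake read by β-counting of NaOH lysates; activity expressed relative to isoproterenol.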

For assay [2], the system named is L6-myotubes. The assay is described as follows: Measurement of intracellular cAMP levels in differentiated L6 cells (alpha screen cAMP kit), compared to isoproterenol. It counts as cell-based. The following applies: agonist 1×10^−5 M, 15 min; for Emax at 10 µM: Rattus norvegicus, L6, 0.25 h, read-out: Biological example 2: intracellular cAMP levels, activity compared to that of isoproterenol. In short, it runs like this:
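L6 myoblasts were differentiated into myotubes over 7 days in 2% FBS, then serum-starved overnight. Agonist at 1×10^−5 M final was applied for 15 min in HBSS with 1% BSA, 5 mM HEPES and 1 mM IBMX, pH 7.4. After ethanol extraction and lysis, cAMP was quantified by AlphaScreen, with activity expressed relative to isoproterenol.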
For orientation: Cyclic AMP is a second messenger, typically raised through Gs and lowered through Gi signalling.

Turning to `CC(C)(C[C@H]1CC[C@@H](C(=O)O)CC1)NC[C@H](O)c1cncc(F)c1` [Example 106, (1S,4s)-4-(2-(((R)-2-(5-Fluoropyridin-3-yl)-2-hydroxyethyl)amino)-2-methylpropyl)cyclohexane-1-carboxylic acid], the Emax at 10 µM in the assay with L6-myotubes [1] is 25 to 50%; with L6-myotubes [2] it was below 25%.
The corresponding values for `CC(=O)N[C@H]1CC[C@H](CNC[C@H](O)c2cccc(F)c2)CC1` [Example 67, N-((1R,4r)-4-((((R)-2-(3-Fluorophenyl)-2-hydroxyethyl)amino)methyl)-cyclohexyl)acetamide] are 25 to 50% and below 25%.
The like results for `CO[C@H]1CC[C@@H](C(C)(C)NC[C@H](O)c2cncc(F)c2)CC1` [Example 6, (R)-1-(5-fluoropyridin-3-yl)-2-((2-((1s,4S)-4-methoxycyclohexyl)propan-2-yl)amino)ethan-1-ol] were, in that order, below 25% and below 25%.
As for `O[C@@H](CNCC[C@H]1CC[C@@H](O)CC1)c1cccc(F)c1` [Example 42, (1S,4s)-4-(2-(((R)-2-(3-Fluorophenyl)-2-hydroxyethyl)amino)ethyl)-cyclohexan-1-ol], in the assay with L6-myotubes [1], the “Biological example 1: glucose uptake, activity compared to that of isoproterenol” value is on record as “+ +”. Besides, the Emax at 10 µM with L6-myotubes [2] was below 25%.
The like results for `O[C@@H](CNCC[C@H]1CC[C@@H](OCc2ccccc2)CC1)c1cccc(F)c1` [Example 41, (R)-2-((2-((1s,4S)-4-(Benzyloxy)cyclohexyl)ethyl)amino)-1-(3-fluoro-phenyl)ethan-1-ol] were, in that order, “+ +” and below 25%.
The corresponding values for `COC(=O)[C@H]1CC[C@@H](CC(C)(C)NC[C@H](O)c2cccc(F)c2)CC1` [Example 103, Methyl (1S,4s)-4-(2-(((R)-2-(3-fluorophenyl)-2-hydroxyethyl)amino)-2-methylpropyl)cyclohexane-1-carboxylate] are “+ + +” and below 25%.
The corresponding values for `O[C@@H](CNCCC[C@H]1CC[C@H](O)CC1)c1cccc(F)c1` [Example 57, (1S,4r)-4-(3-(((R)-2-(3-Fluorophenyl)-2-hydroxyethyl)amino)propyl)-cyclohexan-1-ol] are “+ +” and below 25%.
As for `CO[C@H]1CC[C@@H](CCNC[C@H](O)c2cccc(F)c2)CC1` [Example 9, (R)-1-(3-Fluorophenyl)-2-((2-((1s,4S)-4-methoxycyclohexyl)ethyl)amino)-ethan-1-ol], the “Biological example 1: glucose uptake, activity compared to that of isoproterenol” value in the assay on L6-myotubes [1] is recorded as “+ +”. In the assay with L6-myotubes [2], the Emax at 10 µM was below 25%.
The corresponding values for `CC(=O)N[C@H]1CC[C@H](CC(C)(C)NC[C@H](O)c2cccc(C#N)n2)CC1` [Example 139, N-((1S,4r)-4-(2-(((S)-2-(6-Cyanopyridin-2-yl)-2-hydroxyethyl)amino)-2-methylpropyl)cyclohexyl)acetamide] are “+ + +” and 25 to 50%.
In the case of `O[C@@H](CNCCCC1CCC(OCc2ccccc2)CC1)c1cccc(F)c1` (stereo partly drawn) [Example 53, (R)-2-((3-((1r,4S)-4-(Benzyloxy)cyclohexyl)propyl)amino)-1-(3-fluoro-phenyl)ethan-1-ol], the Emax at 10 µM with L6-myotubes [1] was 25 to 50%; with L6-myotubes [2], below 25%.
With `CC(C)(C[C@H]1CC[C@@H](NS(=O)(=O)C(F)(F)F)CC1)NC[C@H](O)c1cncc(F)c1` [Example 199, 1,1,1-Trifluoro-N-((1S,4s)-4-(2-(((R)-2-(5-fluoropyridin-3-yl)-2-hydroxy-ethyl)amino)-2-methylpropyl)cyclohexyl)methanesulfonamide dihydrochloride], the “Biological example 1: glucose uptake, activity compared to that of isoproterenol” value in the assay on L6-myotubes [1] is on record as “+ + +”. For the same compound, the Emax at 10 µM with L6-myotubes [2] is below 25%.
As for `O[C@@H](CNCCC[C@H]1CC[C@@H](O)CC1)c1cccc(F)c1` [Example 59, (1R,4s)-4-(3-(((R)-2-(3-Fluorophenyl)-2-hydroxyethyl)amino)propyl)-cyclohexan-1-ol], the Emax at 10 µM with L6-myotubes [1] was 25 to 50%; in the assay on L6-myotubes [2], below 25%.
Regarding `CO[C@H]1CC[C@H](CCNC[C@H](O)c2cccc(F)c2)CC1` [Example 11, (R)-1-(3-Fluorophenyl)-2-((2-((1r,4R)-4-methoxycyclohexyl)ethyl)amino)-ethan-1-ol], the Emax at 10 µM with L6-myotubes [1] was 25 to 50%; with L6-myotubes [2], below 25%.
For `CO[C@H]1CC[C@@H](CCCNC[C@H](O)c2cccc(F)c2)CC1` [Example 19, (R)-1-(3-Fluorophenyl)-2-((3-((1s,4R)-4-methoxycyclohexyl)propyl)amino)-ethan-1-ol], the “Biological example 1: glucose uptake, activity compared to that of isoproterenol” value with L6-myotubes [1] is given as “+ + +”. Also, the “Biological example 2: intracellular cAMP levels, activity compared to that of isoproterenol” value in the assay with L6-myotubes [2] is “+ +”.
In the case of `O[C@@H](CNCC[C@H]1CC[C@H](OCc2ccccc2)CC1)c1cccc(F)c1` [Example 45, (R)-2-((2-((1r,4R)-4-(Benzyloxy)cyclohexyl)ethyl)amino)-1-(3-fluoro-phenyl)ethan-1-ol], the figures for the Emax at 10 µM in the assay on L6-myotubes [1] and in the assay on L6-myotubes [2] were 25 to 50% and below 25%, respectively.
Consider `CO[C@H]1CC[C@@H](CCC(C)(C)NC[C@H](O)c2cccc(F)c2)CC1.Cl` [Example 23, (R)-1-(3-Fluorophenyl)-2-((4-((1s,4R)-4-methoxycyclohexyl)-2-methylbutan-2-yl)amino)ethan-1-ol hydrochloride], for which the “Biological example 1: glucose uptake, activity compared to that of isoproterenol” value in the assay on L6-myotubes [1] is recorded as “+ + +”. For the same compound, the Emax at 10 µM in the assay with L6-myotubes [2] fell in the range of 25 to 50%.
The corresponding values for `CC(C)(C[C@H]1CC[C@@H](N)CC1)NC[C@H](O)c1cccc(C#N)n1` [Example 134, 6-((S)-2-((1-((1s,4R)-4-Aminocyclohexyl)-2-methylpropan-2-yl)amino)-1-hydroxyethyl)picolinonitrile trihydrochloride] are “+ +” and below 25%.
For `O[C@@H](CNCCC[C@H]1CC[C@@H](OCc2ccccc2)CC1)c1cccc(F)c1` [Example 55, (R)-2-((3-((1s,4R)-4-(Benzyloxy)cyclohexyl)propyl)amino)-1-(3-fluoro-phenyl)ethan-1-ol], the Emax at 10 µM with L6-myotubes [1] is 25 to 50%; in the assay on L6-myotubes [2], below 25%.
With `O[C@@H](CNC[C@H]1CC[C@@H](OCc2ccccc2)CC1)c1cncc(F)c1` [Example 27, (R)-2-((((1s,4S)-4-(Benzyloxy)cyclohexyl)methyl)amino)-1-(5-fluoropyridin-3-yl)ethan-1-ol], the “Biological example 1: glucose uptake, activity compared to that of isoproterenol” value with L6-myotubes [1] was “+ + +”. Besides, the Emax at 10 µM with L6-myotubes [2] was below 25%.
Turning to `CN(C)C(=O)N[C@H]1CC[C@H](CC(C)(C)NC[C@H](O)c2cccc(F)c2)CC1.Cl` [Example 158, 3-((1R,4r)-4-(2-(((R)-2-(3-Fluorophenyl)-2-hydroxyethyl)amino)-2-methyl-propyl)cyclohexyl)-1,1-dimethylurea hydrochloride], the “Biological example 1: glucose uptake, activity compared to that of isoproterenol” value in the assay on L6-myotubes [1] is “+ + +”. The “Biological example 2: intracellular cAMP levels, activity compared to that of isoproterenol” value in the assay with L6-myotubes [2] is reported as “+ + +”.
Consider `CC(=O)N(C)[C@H]1CC[C@H](CC(C)(C)NC[C@H](O)c2cncc(F)c2)CC1.Cl` [Example 182, N-((1R,4r)-4-(2-(((R)-2-(5-Fluoropyridin-3-yl)-2-hydroxyethyl)amino)-2-methylpropyl)cyclohexyl)-N-methylacetamide], for which the “Biological example 1: glucose uptake, activity compared to that of isoproterenol” value with L6-myotubes [1] is recorded as “+ + +”. Moreover, the Emax at 10 µM in the assay with L6-myotubes [2] lay within 25 to 50%.
With `CC(C)(C[C@H]1CC[C@H](C(=O)O)CC1)NC[C@H](O)c1cncc(F)c1` [Example 110, (1R,4r)-4-(2-(((R)-2-(5-fluoropyridin-3-yl)-2-hydroxyethyl)amino)-2-methylpropyl)cyclohexane-1-carboxylic acid acetate], the Emax at 10 µM in the assay on L6-myotubes [1] and in the assay with L6-myotubes [2] was below 25% each time.
In the case of `CO[C@H]1CC[C@H](C(C)(C)NC[C@H](O)c2cccc(F)c2)CC1` [Example 7], the “Biological example 1: glucose uptake, activity compared to that of isoproterenol” value in the assay on L6-myotubes [1] is listed as “+ + +”. In addition, the Emax at 10 µM with L6-myotubes [2] is below 25%.
For the compound `O[C@@H](CNC[C@H]1CC[C@H](OCc2ccccc2)CC1)c1cncc(F)c1` [Example 31, (R)-2-((((1r,4R)-4-(Benzyloxy)cyclohexyl)methyl)amino)-1-(5-fluoropyridin-3-yl)ethan-1-ol], the figures for the Emax at 10 µM in the assay with L6-myotubes [1] and in the assay with L6-myotubes [2] were 25 to 50% and below 25%, respectively.
The like results for `O[C@@H](CNCC[C@H]1CC[C@H](OCc2ccccc2)CC1)c1cncc(F)c1` [Example 47, (R)-2-((2-((1r,4R)-4-(Benzyloxy)cyclohexyl)ethyl)amino)-1-(5-fluoropyridin-3-yl)ethan-1-ol] were, in that order, below 25% and below 25%.
Consider `CC(C)(C[C@H]1CC[C@H](NS(=O)(=O)C(F)(F)F)CC1)NC[C@H](O)c1cccc(F)c1` [Example 160, 1,1,1-Trifluoro-N-((1R,4r)-4-(2-(((R)-2-(3-fluorophenyl)-2-hydroxyethyl)-amino)-2-methylpropyl)cyclohexyl)methanesulfonamide hydrochloride], for which, in the assay on L6-myotubes [1], the “Biological example 1: glucose uptake, activity compared to that of isoproterenol” value was “+ + +”. In addition, the Emax at 10 µM in the assay with L6-myotubes [2] was below 25%.
The like results for `CNS(=O)(=O)[C@H]1CC[C@H](CC(C)(C)NC[C@H](O)c2cccc(F)c2)CC1` [Example 190, (1R,4r)-4-(2-(((R)-2-(3-Fluorophenyl)-2-hydroxyethyl)amino)-2-methyl-propyl)-N-methylcyclohexane-1-sulfonamide hydrochloride] were, in that order, “+ + +” and 25 to 50%.
